Source: ChEMBL document CHEMBL5665443, “Enzyme Inhibitor Single Concentration assay results for EUbOPEN Chemogenomics Library” (2024)
Where “and” joins values, the source holds several entries; their conditions need not be identical. Equal values may be shown once.

Columns and labels:
[1] = molecular target: T1, Single-strand selective monofunctional uracil DNA glycosylase (Homo sapiens) (UniProt Q53HV7); conditions: Compound Concentration 10.0 uM, Hit No;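 also: enzymatic SMUG1 assay coupled with APE1, reading fluorescence at 594 nm released when a quenched double-stranded DNA oligonucleotide substrate is cleaved and separated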
T1 sequence (whole entry): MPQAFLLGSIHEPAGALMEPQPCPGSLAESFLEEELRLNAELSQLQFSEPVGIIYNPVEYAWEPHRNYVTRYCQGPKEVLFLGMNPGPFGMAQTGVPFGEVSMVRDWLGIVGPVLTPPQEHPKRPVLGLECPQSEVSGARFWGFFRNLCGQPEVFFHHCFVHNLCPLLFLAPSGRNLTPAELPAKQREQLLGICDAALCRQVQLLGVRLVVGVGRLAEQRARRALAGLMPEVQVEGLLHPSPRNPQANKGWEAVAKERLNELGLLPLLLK
Description: Inhibition of SMUG1 by quantifying inhibition of SMUG1-mediated cleavage and dissociation of quenched duplex DNA oligonucleotides, measured as fluorescence at 594 nm. To generate a functional strand incision and increase turn-over this assay is coupled to APE1.

[2] = molecular target: G/T mismatch-specific thymine DNA glycosylase (Homo sapiens) (UniProt Q13569); conditions: Compound Concentration 10.0 uM;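 also: human TDG cleavage of quenched duplex DNA oligonucleotides coupled to APE1, strand release read as fluorescence at 594 nm, inhibition of TDG activity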
Description: Inhibition of TDG by quantifying inhibition of TDG-mediated cleavage and dissociation of quenched duplex DNA oligonucleotides, measured as fluorescence at 594 nm. To generate a functional strand incision and increase turn-over this assay is coupled to APE1.

[3] = molecular target: T2, Endonuclease III-like protein 1 (Homo sapiens) (UniProt P78549); conditions: Compound Concentration 10.0 uM, Hit No;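 also: enzyme assay tracking NTHL1 cutting and release of a quenched double-stranded DNA oligo substrate, read as fluorescence at 594 nm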
T2 sequence (whole entry): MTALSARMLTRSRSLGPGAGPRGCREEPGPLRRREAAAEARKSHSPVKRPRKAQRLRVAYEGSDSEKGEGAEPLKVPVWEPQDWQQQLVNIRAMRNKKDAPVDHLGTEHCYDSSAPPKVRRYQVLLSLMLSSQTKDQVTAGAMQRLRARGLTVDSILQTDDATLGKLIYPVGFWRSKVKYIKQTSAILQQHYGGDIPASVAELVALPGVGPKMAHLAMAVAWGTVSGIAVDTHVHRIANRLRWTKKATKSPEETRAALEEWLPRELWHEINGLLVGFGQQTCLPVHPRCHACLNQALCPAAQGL
Description: Inhibition of NTHL1 by quantifying inhibition of NTHL1-mediated cleavage and dissociation of quenched duplex DNA oligonucleotides, measured as fluorescence at 594 nm.

[4] = molecular target: N-glycosylase/DNA lyase (Homo sapiens) (UniProt O15527); conditions: Compound Concentration 10.0 uM;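 also: OGG1 cleavage of a quenched duplex DNA oligonucleotide, coupled to APE1 for strand incision, read as fluorescence at 594 nm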
Description: Inhibition of OGG1 by quantifying inhibition of OGG1-mediated cleavage and dissociation of quenched duplex DNA oligonucleotides, measured as fluorescence at 594 nm. To generate a functional strand incision and increase turn-over this assay is coupled to APE1.

[5] = molecular target: Endonuclease 8-like 1 (Homo sapiens) (UniProt Q96FI4); conditions: Compound Concentration 10.0 uM, Hit No;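 also: fluorescence at 594 nm from quenched duplex DNA oligonucleotides released by NEIL1 cleavage and strand separation, reported as reduction of this enzyme activity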
Description: Inhibition of NEIL1 by quantifying inhibition of NEIL1-mediated cleavage and dissociation of quenched duplex DNA oligonucleotides, measured as fluorescence at 594 nm.

[6] = molecular target: T3, Endonuclease 8-like 2 (Homo sapiens) (UniProt Q969S2); conditions: Compound Concentration 10.0 uM, Hit No;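 also: fluorescence at 594 nm reports NEIL2 cutting and release of a quenched double-stranded DNA oligo substrate, reduced signal read as inhibition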
T3 sequence (whole entry): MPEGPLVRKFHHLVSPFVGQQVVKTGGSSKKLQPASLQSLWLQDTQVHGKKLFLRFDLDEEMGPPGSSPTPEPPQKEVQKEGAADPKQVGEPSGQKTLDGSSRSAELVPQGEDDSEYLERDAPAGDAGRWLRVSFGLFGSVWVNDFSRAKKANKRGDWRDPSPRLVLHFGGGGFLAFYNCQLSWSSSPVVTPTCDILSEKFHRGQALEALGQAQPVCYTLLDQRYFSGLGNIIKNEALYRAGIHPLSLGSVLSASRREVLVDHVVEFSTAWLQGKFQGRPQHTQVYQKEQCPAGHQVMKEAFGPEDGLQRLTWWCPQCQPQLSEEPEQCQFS
Description: Inhibition of NEIL2 by quantifying inhibition of NEIL2-mediated cleavage and dissociation of quenched duplex DNA oligonucleotides, measured as fluorescence at 594 nm.

[7] = molecular target: T4, Adenine DNA glycosylase (Homo sapiens) (UniProt Q9UIF7); conditions: Compound Concentration 10.0 uM, Hit No;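 also: human MUTYH activity read as 594 nm fluorescence from cleavage and release of a quenched DNA duplex, coupled with APE1 for strand incision, lower signal meaning inhibition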
T4 sequence (whole entry): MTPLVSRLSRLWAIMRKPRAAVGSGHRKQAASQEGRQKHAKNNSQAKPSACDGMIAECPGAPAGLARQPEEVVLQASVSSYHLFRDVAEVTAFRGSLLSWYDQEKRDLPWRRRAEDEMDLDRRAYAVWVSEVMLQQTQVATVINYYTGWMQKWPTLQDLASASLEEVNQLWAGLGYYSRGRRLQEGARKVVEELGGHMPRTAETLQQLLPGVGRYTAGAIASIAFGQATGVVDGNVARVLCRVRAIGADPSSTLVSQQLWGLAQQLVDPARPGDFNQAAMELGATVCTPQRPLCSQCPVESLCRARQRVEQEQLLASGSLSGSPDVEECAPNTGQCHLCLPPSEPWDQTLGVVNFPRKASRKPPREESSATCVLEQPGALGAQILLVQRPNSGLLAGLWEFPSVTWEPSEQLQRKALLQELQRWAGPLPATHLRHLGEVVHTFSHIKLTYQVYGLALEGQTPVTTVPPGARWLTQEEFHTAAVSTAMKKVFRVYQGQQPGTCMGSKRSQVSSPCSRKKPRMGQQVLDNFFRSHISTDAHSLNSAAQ
Description: Inhibition of MUTYH by quantifying inhibition of MUTYH-mediated cleavage and dissociation of quenched duplex DNA oligonucleotides, measured as fluorescence at 594 nm. To generate a functional strand incision and increase turn-over this assay is coupled to APE1.

[8] = molecular target: Uracil-DNA glycosylase (Homo sapiens) (UniProt P13051); conditions: Compound Concentration 10.0 uM, Hit No;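 also: UNG excision on a quenched double-stranded DNA oligo probe, with APE1 added for strand incision and turnover, read as fluorescence at 594 nm as strands separate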
Description: Inhibition of UNG by quantifying inhibition of UNG-mediated cleavage and dissociation of quenched duplex DNA oligonucleotides, measured as fluorescence at 594 nm. To generate a functional strand incision and increase turn-over this assay is coupled to APE1.

[9] = molecular target: Methyl-CpG-binding domain protein 4 (Homo sapiens) (UniProt O95243); conditions: Compound Concentration 10.0 uM;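 also: MBD4 activity read as fluorescence at 594 nm from cleavage and release of a quenched duplex DNA oligonucleotide, with APE1 coupled to incise the strand and raise turnover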
Description: Inhibition of MBD4 by quantifying inhibition of MBD4-mediated cleavage and dissociation of quenched duplex DNA oligonucleotides, measured as fluorescence at 594 nm. To generate a functional strand incision and increase turn-over this assay is coupled to APE1.

[10] = molecular target: DNA-3-methyladenine glycosylase (Homo sapiens) (UniProt P29372); conditions: Compound Concentration 10.0 uM, Hit No;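 also: enzyme assay where MPG cuts a quenched duplex DNA oligonucleotide probe, paired with APE1 for strand incision and turnover, read as fluorescence at 594 nm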
DNA-3-methyladenine glycosylase (Homo sapiens), sequence (P29372 whole entry): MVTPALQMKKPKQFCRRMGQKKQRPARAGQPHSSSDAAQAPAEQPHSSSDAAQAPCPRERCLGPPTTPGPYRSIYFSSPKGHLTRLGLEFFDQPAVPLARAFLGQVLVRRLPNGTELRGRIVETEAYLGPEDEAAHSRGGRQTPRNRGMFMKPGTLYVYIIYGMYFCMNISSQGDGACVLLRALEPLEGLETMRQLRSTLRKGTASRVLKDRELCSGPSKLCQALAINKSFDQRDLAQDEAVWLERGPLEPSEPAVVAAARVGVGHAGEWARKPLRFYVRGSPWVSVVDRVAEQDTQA
Description: Inhibition of MPG by quantifying inhibition of MPG-mediated cleavage and dissociation of quenched duplex DNA oligonucleotides, measured as fluorescence at 594 nm. To generate a functional strand incision and increase turn-over this assay is coupled to APE1.

Methyl-CpG-binding domain protein 4 (Homo sapiens), sequence (O95243 whole entry, the tested form may be a part): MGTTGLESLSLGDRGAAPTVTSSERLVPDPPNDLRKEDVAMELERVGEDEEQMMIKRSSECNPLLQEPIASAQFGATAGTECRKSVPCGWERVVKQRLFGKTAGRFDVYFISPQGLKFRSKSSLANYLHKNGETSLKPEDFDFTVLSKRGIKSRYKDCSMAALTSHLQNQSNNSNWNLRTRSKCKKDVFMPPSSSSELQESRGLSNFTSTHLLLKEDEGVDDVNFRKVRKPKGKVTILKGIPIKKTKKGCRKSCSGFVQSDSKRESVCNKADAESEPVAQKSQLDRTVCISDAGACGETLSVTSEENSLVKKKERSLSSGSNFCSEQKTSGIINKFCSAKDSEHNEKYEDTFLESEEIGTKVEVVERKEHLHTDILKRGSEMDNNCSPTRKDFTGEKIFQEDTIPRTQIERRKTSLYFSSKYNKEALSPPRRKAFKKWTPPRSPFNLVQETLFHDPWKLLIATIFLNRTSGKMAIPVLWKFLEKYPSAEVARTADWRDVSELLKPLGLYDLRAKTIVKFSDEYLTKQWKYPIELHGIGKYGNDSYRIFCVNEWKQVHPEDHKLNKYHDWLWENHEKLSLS
N-glycosylase/DNA lyase (Homo sapiens), sequence (O15527 whole entry): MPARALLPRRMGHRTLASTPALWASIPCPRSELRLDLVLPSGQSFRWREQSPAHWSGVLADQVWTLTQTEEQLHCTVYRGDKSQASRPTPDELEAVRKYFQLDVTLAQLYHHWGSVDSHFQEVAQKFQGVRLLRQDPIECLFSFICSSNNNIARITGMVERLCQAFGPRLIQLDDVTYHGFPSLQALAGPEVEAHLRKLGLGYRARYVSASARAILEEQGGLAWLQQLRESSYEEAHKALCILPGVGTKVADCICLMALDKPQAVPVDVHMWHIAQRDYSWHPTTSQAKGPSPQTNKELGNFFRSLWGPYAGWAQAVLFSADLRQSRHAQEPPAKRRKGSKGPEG
G/T mismatch-specific thymine DNA glycosylase (Homo sapiens), sequence (Q13569 whole entry): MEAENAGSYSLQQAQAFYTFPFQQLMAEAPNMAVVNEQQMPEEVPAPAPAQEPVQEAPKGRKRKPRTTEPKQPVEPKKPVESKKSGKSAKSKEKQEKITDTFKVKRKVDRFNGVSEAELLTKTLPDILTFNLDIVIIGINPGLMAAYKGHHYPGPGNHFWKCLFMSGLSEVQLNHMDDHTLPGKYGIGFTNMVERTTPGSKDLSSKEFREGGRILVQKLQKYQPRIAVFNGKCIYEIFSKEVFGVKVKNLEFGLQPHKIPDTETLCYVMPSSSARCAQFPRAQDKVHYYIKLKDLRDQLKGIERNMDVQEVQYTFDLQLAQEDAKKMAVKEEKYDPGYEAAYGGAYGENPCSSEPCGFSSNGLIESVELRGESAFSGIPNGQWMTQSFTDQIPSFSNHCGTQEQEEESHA
Endonuclease 8-like 1 (Homo sapiens), sequence (Q96FI4 whole entry): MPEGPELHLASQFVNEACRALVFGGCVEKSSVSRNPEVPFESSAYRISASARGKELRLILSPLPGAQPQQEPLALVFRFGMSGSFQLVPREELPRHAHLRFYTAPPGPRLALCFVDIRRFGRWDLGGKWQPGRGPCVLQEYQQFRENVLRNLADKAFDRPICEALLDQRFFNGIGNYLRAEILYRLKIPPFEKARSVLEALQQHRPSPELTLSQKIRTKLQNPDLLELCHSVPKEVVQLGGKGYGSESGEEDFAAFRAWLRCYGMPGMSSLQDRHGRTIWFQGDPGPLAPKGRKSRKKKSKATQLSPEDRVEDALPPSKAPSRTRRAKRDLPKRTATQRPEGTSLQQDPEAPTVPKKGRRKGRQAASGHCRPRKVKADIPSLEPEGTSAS
Uracil-DNA glycosylase (Homo sapiens), sequence (P13051 whole entry, the tested form may be a part): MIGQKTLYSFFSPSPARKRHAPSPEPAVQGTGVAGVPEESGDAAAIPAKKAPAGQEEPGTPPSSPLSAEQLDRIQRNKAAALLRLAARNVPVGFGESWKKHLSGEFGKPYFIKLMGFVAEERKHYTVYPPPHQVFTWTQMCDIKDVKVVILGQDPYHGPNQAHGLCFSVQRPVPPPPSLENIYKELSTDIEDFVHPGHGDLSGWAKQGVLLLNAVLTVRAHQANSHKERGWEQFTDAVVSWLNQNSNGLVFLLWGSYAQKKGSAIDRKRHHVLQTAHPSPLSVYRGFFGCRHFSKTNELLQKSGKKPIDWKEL

Structure (SMILES) | inhibition [1] [%] | inhibition ([2]; Hit No) [%] | inhibition [3] [%] | inhibition ([4]; Hit No) | inhibition [5] | inhibition [6] | inhibition [7] | inhibition [8] | inhibition ([9]; Hit No) | inhibition [10] | inhibition ([2]; Hit Yes) | inhibition ([4]; Hit Yes) [%] | inhibition ([9]; Hit Yes) [%]
Clc1ccccc1C(c1ccccc1)(c1ccccc1)n1cccn1 | -6.62 | 10.7 | 15.4 | -9.77% | 5.94% | -6.46% | 23.9% | -9.12% | 5.21% | -4.99% |  |  | 
O=S(=O)(Nc1nnc2cc(OCC34CC5CC(CC(C5)C3)C4)c(C3CC3)cn12)C1CC1 | 11.5 |  | 10.5 |  | 6.23% | 11.9% | 84.7% | 12% |  | 62.1% | 73.8% | 53 | 80.9
C[C@H](N)COC(=O)[C@@H](CCCCN)NC(=O)Cc1c(-c2ccc3ccccc3c2)[nH]c2c1ccc1ccccc12 | 4.71 |  | 5.59 | -2.94% and 9.96% | 2.76% and 13.3% | 14.7% and 12.7% | 122% and 125% | 4.7% and 1.53% | 95.3% and 102% | 58.5% and 61.8% | 88.5% and 91% |  | 
CCOC(=O)c1ccc(N2C(=O)C(O)=C(C(=O)c3ccc(OC)cc3)C2c2ccc(F)cc2)cc1 (stereo not given) | 1.4 | 46.7 | 21.2 | -5.97% | 11.9% | 0.414% | 62.9% | 1.33% | 55.1% | 15.7% |  |  | 
COc1cc(NC(=O)CCN2CCC(OC(=O)Nc3ccccc3-c3ccccc3)CC2)c(Cl)cc1CNC[C@H](O)c1ccc(O)c2[nH]c(=O)ccc12 | 0.984 | 16.7 | 9.99 | -7.57% | -7.76% | -2.98% | 11.4% | -5.99% | -6.36% | 7.51% |  |  | 
O=C(NCC(=O)N1CC[C@H](N[C@H]2CC[C@@](O)(c3ccc(-c4ncccn4)cn3)CC2)C1)c1cccc(C(F)(F)F)c1 | 2.1 | 24.3 | 0.458 | 1.04% | 2.76% | 6.25% | 10.3% | -9.06% | -4.26% | -2.02% |  |  | 
COC[C@H](O)Cn1c(=O)cnn(-c2ccc(Cl)c(C(=O)NCC3(O)CCCCCC3)c2)c1=O | -5.5 | 9.08 | -8.51 | -7.67% | 1.64% | -2.64% | 7.26% | -3.13% | 2.28% | 19.8% |  |  | 
O=C1C[C@@H]2OCC=C3CN4CC[C@]56c7ccccc7N1[C@H]5[C@H]2[C@H]3C[C@H]46 | -0.692 | 11.6 | 10.5 | -7.16% | 0.602% | -1.88% | 38.1% | -3.11% | 11.5% | -1.64% |  |  | 
Cc1ccc2c(c1CCC(=O)O)CC[C@@H](NS(=O)(=O)c1ccc(Cl)cc1)C2 | 4.86 | 18 | 15.1 | 10% | 5.13% | 1.01% | 33.4% | -7.64% | 16.2% | 11.8% |  |  | 
CS(=O)(=O)c1cccc(NC(=O)N(Cc2ccc(C(=O)Nc3nnn[nH]3)cc2)c2ccc(C3CCCCC3)cc2)c1 | 6.31 | 36.1 | 7.79 | 18.7% | 1.57% | 14.7% | 44.3% | -4.34% | 45.7% | 26.7% |  |  | 
